Measurements as given in patent US7348301B2, “Lysozyme-based method and composition to control the growth of microorganisms in aqueous systems” (Buckman Laboratories International, Inc., priority 2006, dated 2008).

How the values were obtained:
[1] = system: Chlorella sp. (ATCC 7516); experiment: Evaluation of algaecidal activity (MIC, checkerboard synergy) against Chlorella sp.; assay type: cell-based; conditions: for [A]/MICA + [B]/MICB (Fractional Inhibitory Concentration Index, FIC): Chlorella sp., <1 denotes synergy; for MIC (ppm product): Chlorella sp. (ATCC 7516), 14 days at 24 C, 16 h light/8 h darkness, enzyme alone
Protocol: (§1) A. Evaluation of Algaecidal Activity. This test method provides a technique for testing compounds for their effectiveness to inhibit (repress) algae growth.
(§2) Cell suspension from a culture grown in modified Allen's medium for 14 days or as needed to attain a desired cell mass of Chlorella sp. (ATCC 7516) or Phormidium faveolarum (UTEX 427). The inoculum is calibrated at 82% transmittance measured at 590 nanometers wavelength before inoculation.
(§3) Sterilize the medium in the autoclave for 20 minutes at 15 pounds pressure (121° C.). After autoclaving, cool medium to 45-50° C. and dispense 5 ml of medium per test tube, then add the compound and the inoculum.
(§4) Prepare a stock solution in water of the compound to be tested. The concentration of the stock solution is dependent on the largest dosage desired to be tested. Dilute the stock solution to obtain dosages smaller than that chosen for the stock solution. A maximum amount of 100 microliters of stock solution or the corresponding dilution should be added per test tube.
• Add 100 microliters of inoculum per test tube, per type of medium and type of inoculum. Incubation: • Place the test tubes containing the treatments in an incubator set at 24° C. Light is provided by plant growth fluorescent tubes set to provide 16 h of light and 8 h of darkness. […] The minimum inhibitory concentration (MIC) of the compound is the smallest dosage showing negative algae growth. Synergy Evaluation:
Synergy was measured by checkerboards dilutions (Yan and Hancock, 2001), in which one compound is diluted along the rows of test tubes and the other is diluted along the columns. This method focuses on looking for a reduction in the MIC of each component in the presence of the other.

[2] = system: Phormidium faveolarum (UTEX 427); experiment: Evaluation of algaecidal activity (MIC, checkerboard synergy) against Phormidium faveolarum; assay type: cell-based; conditions: <1 denotes synergy
Protocol: as §1, §2, §3, §4
• Add 100 microliters of inoculum per test tube, per type of medium and type of inoculum. Incubation: • Place the test tubes containing the treatments in an incubator set at 24° C. […]
Synergy was measured by checkerboards dilutions (Yan and Hancock, 2001), in which one compound is diluted along the rows of test tubes and the other is diluted along the columns. […]

## [Cl-].[Na+] [Sodium Chloride]
[1]; Example 10, 14 days
  [A]/MICA + [B]/MICB (Fractional Inhibitory Concentration Index, FIC): 1.000
[2]; Example 11, 14 days
  [A]/MICA + [B]/MICB (Fractional Inhibitory Concentration Index, FIC): 1.00

## Benzalkonium Chloride [reference compound]
[1]; Example 1, 18 days
  [A]/MICA + [B]/MICB (Fractional Inhibitory Concentration Index, FIC): 1.000
[2]; Example 2, 18 days
  [A]/MICA + [B]/MICB (Fractional Inhibitory Concentration Index, FIC): 1.00

## Lysozyme Chloride [Lysozyme Chloride (MP Biomedicals)]
[1]
  MIC (ppm product): 0.1-0.4 ppm product

## Lysozyme Chloride [Lysozyme Chloride (NutriScience)]
[1]
  MIC (ppm product): 0.4-0.7 ppm product

## Lysozyme [Lysozyme (Sigma)]
[1]
  MIC (ppm product): 0.4-0.7 ppm product
